The values that follow come from patent US9278958B2, “Anti-cancer compounds” (KATHOLIEKE UNIVERSITEIT LEUVEN, priority 2012, dated 2016).

Where two headings read alike, the source gives them in different places.

The subject of one assay is CEM cells. Put plainly: Cytostatic assay, CEM. Format: cell-based. The following applies: for Ratio (tumor cell selectivity): ratio IC50 HeLa / IC50 CEM, Table 7. As to the method: (§1) To each well of a 96-well microtiter plate were added 5-7.5×10^4 cells and a given amount of the test compound. The cells were allowed to proliferate for 48 h to 96 h (depending on the nature of the cell line) at 37° C. in a humidified CO2-controlled atmosphere. At the end of the incubation period, the cells were counted in a Coulter Counter (Coulter Electronics Ltd, Harpenden Herts, United Kingdom).

For assay [1], the system named is HeLa cervix carcinoma cells. Nature of the assay: Cytostatic assay, HeLa. Format: cell-based, human. Here is the method:
as §1

[2] abbreviates: Homo sapiens, CCRF-CEM, CEM cells, Table 7, 5-arylthiomethyl-substituted 2-amino-3-carboxymethylthiophenes, read-out: IC50 (μM) CEM.
The mark [3] stands for this setting: Homo sapiens, HeLa cells, Table 7, 5-arylthiomethyl-substituted 2-amino-3-carboxymethylthiophenes, read-out: IC50 (μM) HeLa.
Setting [4] is: CEM cells, Table 7, 5-arylthiomethyl-substituted 2-amino-3-carboxymethylthiophenes, read-out: IC50 (μM) CEM.
The mark [5] stands for this setting: Table 1b, read-out: IC50 (μM) (CEM).
Setting [6] is: HeLa cells, Table 7, 5-arylthiomethyl-substituted 2-amino-3-carboxymethylthiophenes, read-out: IC50 (μM) HeLa.
[7] abbreviates: Table 1b, read-out: IC50 (μM) (HeLa).
The mark [8] stands for this setting: Homo sapiens, CCRF-CEM, Table 1a, read-out: IC50 μM (CEM).
Where [9] appears, read: Homo sapiens, CCRF-CEM, Table 1b, read-out: IC50 (μM) (CEM).
[10] abbreviates: Homo sapiens, Table 1b, read-out: IC50 (μM) (HeLa).

Broadly, the IC50 is the concentration that gives 50% inhibition. As for “2-Amino-5-(2-(4-methoxyphenyl)ethyl)thiophene-3-carboxylate [TJ8]”, the IC50 in the assay with CEM cells (Table 1a, read-out: IC50 μM (CEM)) amounted to 31 µM.

For `COC(=O)c1cc(CSc2ccccc2C)sc1N` [Compound D3, Methyl 2-amino-5-(o-tolylthiomethyl)thiophene-3-carboxylate], the values for the IC50 (in the assay with CEM cells (setting [2]); in assay [1] (setting [3])) were 2 µM and 71 µM, respectively. Also, the “Ratio (tumor cell selectivity)” value in the assay with CEM cells is on record as 36.

As for `COC(=O)c1cc(CSc2ccc(Cl)cc2)sc1N` [Compound D4, Methyl 2-amino-5-((4-chlorophenylthio)methyl)thiophene-3-carboxylate], the half-maximal inhibitory concentration (IC50) was found to be 1.7 µM in the assay on CEM cells (setting [2]) and 42 µM in assay [1] (setting [3]). Besides, in the assay on CEM cells, the “Ratio (tumor cell selectivity)” value is reported as 25.

Consider `COC(=O)c1cc(CSc2ccccc2OC)sc1N` [Compound D6, Methyl 2-amino-5-((2-methoxyphenylthio)methyl)thiophene-3-carboxylate], for which the concentration for half-maximal inhibition (IC50) in the assay with CEM cells (setting [2]) came to 17 µM; in assay [1] (setting [3]), 94 µM. Moreover, the “Ratio (tumor cell selectivity)” value in the assay with CEM cells was found to be 6.

Consider `COC(=O)c1ccccc1SCc1cc(C(=O)OC)c(N)s1` [Compound D7, Methyl 2-amino-5-((2-(methoxycarbonyl)phenylthio)methyl)thiophene-3-carboxylate], for which the figures for the 50% inhibitory concentration (IC50) (in the assay on CEM cells (setting [2]); in assay [1] (setting [3])) were 27 µM and 190 µM, respectively. The “Ratio (tumor cell selectivity)” value in the assay with CEM cells turned out to be 7.

As for `COC(=O)c1cc(CSC2CCCCC2)sc1N` [Compound D8, Methyl 2-amino-5-(cyclohexylthiomethyl)thiophene-3-carboxylate], the figures for the IC50 (in the assay with CEM cells (setting [2]); in assay [1] (setting [3])) were 2.1 µM and 81 µM, respectively. Moreover, the “Ratio (tumor cell selectivity)” value in the assay on CEM cells is listed as 39.

Take `COC(=O)c1cc(CSc2ccc(F)cc2)sc1N` [Compound D10, Methyl 2-amino-5-((4-fluorophenylthio)methyl)thiophene-3-carboxylate]: the IC50 is 3.1 µM in the assay on CEM cells (setting [2]) and 102 µM in assay [1] (setting [3]). The “Ratio (tumor cell selectivity)” value in the assay with CEM cells stood at 33.

Regarding `COC(=O)c1cc(CSc2ccccc2)sc1N` [TJ4, Methyl 2-amino-5-(2-(phenyl)sulfanylmethyl)thiophene-3-carboxylate], the IC50 in the assay with CEM cells (setting [4]) came out at 1.3 µM; in the assay on CEM cells (setting [5]), 1.3 ± 0.6 µM; in assay [1] (setting [6]) it was 108 µM; in assay [1] (setting [7]) it was 108 ± 7 µM. Besides, in the assay on CEM cells, the “Ratio (tumor cell selectivity)” value is listed as 83.

Consider `CNc1sc(CCc2ccc(OC)cc2)cc1C(=O)OC` [TJ6A, Methyl 2-methylamino-5-(2-(4-methoxyphenyl)ethyl)thiophene-3-carboxylate], for which the IC50 with CEM cells (setting [8]) is 23 µM.

`COC(=O)c1cc(CCc2ccc(OC)cc2)sc1N(C)C` [TJ6B, Methyl 2-dimethylamino-5-(2-(4-methoxyphenyl)ethyl)thiophene-3-carboxylate]: the IC50 with CEM cells (setting [8]) was determined as 18 µM.

Regarding `COC(=O)c1csc(CCc2ccc(OC)cc2)c1` [TJ7, Methyl 5-(2-(4-methoxyphenyl)ethyl)thiophene-3-carboxylate], the IC50 with CEM cells (setting [8]) stood at 87 µM.

Regarding `COc1ccc(CCc2cc(C(N)=O)c(N)s2)cc1` [TJ9, 2-Amino-5-(2-(4-methoxyphenyl)ethyl)thiophene-3-carboxamide], the IC50 with CEM cells (setting [8]) was found to be 39 µM.

`CNC(=O)c1cc(CCc2ccc(OC)cc2)sc1N` [TJ19, N-Methyl 2-amino-5-(2-(4-methoxyphenyl)ethyl)thiophene-3-carboxamide]: the concentration for half-maximal inhibition (IC50) with CEM cells (setting [8]) came out at 31 µM.

For the compound `COC(=O)c1cc(CSc2ccc(OC)cc2)sc1N1C(=O)c2ccccc2C1=O` [TJ21, Methyl 2-phthalimido-5-(2-(4-methoxyphenyl)sulfanylmethyl)thiophene-3-carboxylate], the IC50 in the assay on CEM cells (setting [5]) amounted to 4.9 ± 1.4 µM; in assay [1] (setting [7]) it was 112 ± 2 µM.

For `COC(=O)c1cc(CSc2ccc(OC)cc2)sc1N` [TJ22, Methyl 2-amino-5-(2-(4-methoxyphenyl)sulfanylmethyl)thiophene-3-carboxylate], the IC50 with CEM cells (setting [4]) is 0.62 µM; in the assay with CEM cells (setting [5]), 0.62 ± 0.33 µM; in assay [1] (setting [6]), 58 µM; in assay [1] (setting [7]) it was 58 ± 1 µM. The “Ratio (tumor cell selectivity)” value with CEM cells is 93.

In the case of `COC(=O)c1cc(COc2ccc(OC)cc2)sc1N` [TJ25, Methyl 2-amino-5-(2-(4-methoxyphenyl)oxymethyl)thiophene-3-carboxylate], the IC50 with CEM cells (setting [5]) stood at 43 ± 13 µM; in assay [1] (setting [7]), 68 ± 13 µM.

With `COC(=O)c1cc(CNc2ccc(OC)cc2)sc1N` [TJ51, Methyl 2-amino-5-(2-(4-methoxyphenyl)aminomethyl)thiophene-3-carboxylate], the IC50 with CEM cells (setting [5]) came to 96 ± 16 µM; in assay [1] (setting [7]) it was 78 ± 15 µM.

`COC(=O)c1cc(CSc2cccc(C(=O)O)c2)sc1N` [TJ53, 3-((5-amino-4-(methoxycarbonyl)thiophen-2-yl)methylthio)benzoic acid]: the IC50 was 124 µM with CEM cells (setting [2]) and 75 µM in assay [1] (setting [3]). Moreover, the “Ratio (tumor cell selectivity)” value with CEM cells is given as “≦1”.

In the case of `COC(=O)c1cc(CSc2cccc(C)c2)sc1N` [TJ54P, Methyl 2-amino-5-(2-(3-methylphenyl)sulfanylmethyl)thiophene-3-carboxylate], the IC50 in the assay on CEM cells (setting [4]) came to 4.1 µM; in the assay with CEM cells (setting [5]) it was 4.1 ± 1.7 µM; in assay [1] (setting [6]) it was 108 µM; in assay [1] (setting [7]), 108 µM. Moreover, the “Ratio (tumor cell selectivity)” value in the assay with CEM cells amounted to 26.

Take `COC(=O)c1cc(CSc2cccc(C)c2)sc1N1C(=O)c2ccccc2C1=O` [TJ54SM, Methyl 2-phthalimido-5-(2-(3-methylphenyl)sulfanylmethyl)thiophene-3-carboxylate]: the results for the IC50 (with CEM cells (setting [5]); in assay [1] (setting [7])) were 6.9 ± 0.7 µM and 121 ± 13 µM, respectively.

On to `COC(=O)c1cc(CSc2ccc(C)cc2)sc1N` [TJ55, Methyl 2-amino-5-((4-methylphenylthio)methyl)thiophene-3-carboxylate], for which the IC50 with CEM cells (setting [2]) is 1.5 µM; in the assay with CEM cells (setting [9]) it was 1.5 ± 0.3 µM; in assay [1] (setting [3]) it was 72 µM; in assay [1] (setting [10]), 72 ± 30 µM. Further, the “Ratio (tumor cell selectivity)” value with CEM cells is 48.

For the compound `COC(=O)c1cc(CSCc2ccccc2)sc1N` [TJ57, Methyl 2-amino-5-(2-(phenyl)methylsulfanylmethyl)thiophene-3-carboxylate], the half-maximal inhibitory concentration (IC50) in the assay with CEM cells (setting [4]) amounted to 3.5 µM; in the assay on CEM cells (setting [5]) it was 3.5 ± 1.1 µM; in assay [1] (setting [6]) it was 61 µM; in assay [1] (setting [7]), 61 ± 38 µM. Further, the “Ratio (tumor cell selectivity)” value in the assay on CEM cells is 17.

Turning to `COC(=O)c1cc(CSc2ccccc2)sc1N1C(=O)c2ccccc2C1=O` [TJ86, Methyl 2-phthalimido-5-(2-(phenyl)sulfanylmethyl)thiophene-3-carboxylate], the results for the IC50 (with CEM cells (setting [5]); in assay [1] (setting [7])) were 13 ± 7 µM and 184 ± 6 µM, respectively.

As to `COC(=O)c1cc(Cc2ccccc2)sc1N` [TJ109, Methyl 2-amino-5-benzylthiophene-3-carboxylate], the IC50 with CEM cells (setting [8]) amounted to 8.4 µM.

As for `COC(=O)c1cc(CSc2ccc3ccccc3c2)sc1N` [TJ113, Methyl 2-amino-5-((naphthalen-2-ylthio)methyl)thiophene-3-carboxylate], the IC50 in the assay with CEM cells (setting [2]) came to 0.9 µM; in the assay on CEM cells (setting [9]), 0.9 ± 0.04 µM; in assay [1] (setting [3]), 74 µM; in assay [1] (setting [10]) it was 74 ± 6 µM. In addition, the “Ratio (tumor cell selectivity)” value in the assay on CEM cells amounted to 82.

In the case of `COC(=O)c1cc(CSCc2ccco2)sc1N` [TJ117, Methyl 2-amino-5-((furan-2-ylmethylthio)methyl)thiophene-3-carboxylate], the IC50 was determined as 4.9 µM in the assay on CEM cells (setting [2]), 4.9 ± 0.1 µM with CEM cells (setting [9]), 102 µM in assay [1] (setting [3]) and 102 ± 6 µM in assay [1] (setting [10]). The “Ratio (tumor cell selectivity)” value with CEM cells stood at 21.
